Results from patent US4698352A, “4-oxo-1,4-dihydronicotinic acid derivatives, salts thereof, and antibacterial agents containing the same” (Toyama Chemical Co., Ltd., priority 1982, dated 1987).
In brackets after ≈: the same amount, converted by molar mass. Read-outs that look alike come from different tables or passages of the source.

Columns and labels:
Assay in all cases: Antibacterial activity (MIC), agar dilution
Type in all cases: cell-based
[1] = tested on: Ps. aeruginosa GN918**; settings: Pseudomonas aeruginosa, Ps. aeruginosa GN918, cephalospolinase-producing, 10^6 cells per ml
From the text: (§1) The amount of bacteria inoculated was 10^4 cells per plate (10^6 cells per ml).
(§2) ** Cephalospolinase-producing bacteria

[2] = tested on: E. coli GN5482**; settings: Escherichia coli, 20 h; E. coli GN5482, cephalospolinase-producing; 10^6 cells per ml; read-out: MIC
From the text: as §1, §2

[3] = tested on: Pro. vulgaris GN76**; settings: Proteus vulgaris
From the text: as §1, §2

[4] = tested on: Kl. pneumoniae Y-50; settings: Klebsiella pneumoniae, Y50, 20 h, 10^6 cells per ml, 37° C., read-out: MIC
From the text: as §1

[5] = tested on: Aci. antitratus A-6; settings: 20 h, Aci. antitratus A-6; 10^6 cells per ml; 37° C., 20 hours; read-out: MIC
From the text: as §1

[6] = tested on: Ent. cloacae IID977; settings: Enterobacter cloacae, IID977, 20 h
From the text: as §1

[7] = tested on: Pro. vulgaris GN3027; settings: Proteus vulgaris, GN3027, 20 h, Pro. vulgaris GN3027; 10^6 cells per ml; 37° C., 20 hours; read-out: MIC
From the text: as §1

[8] = tested on: E. coli NIHJ JC-2; settings: Escherichia coli, NIHJJC2, 20 h, E. coli NIHJ JC-2; 10^6 cells per ml; 37° C., 20 hours; read-out: MIC
From the text: as §1

[9] = tested on: Kl. pneumoniae Y-41; settings: Klebsiella pneumoniae, Y41, 10^6 cells per ml, 37° C., 20 hours, read-out: MIC
From the text: as §1

[10] = tested on: Ps. aeruginosa IFO3445; settings: Pseudomonas aeruginosa
From the text: as §1

[11] = tested on: E. coli TK-111; settings: Escherichia coli, TK111, 20 h, E. coli TK-111; 10^6 cells per ml; 37° C., 20 hours; read-out: MIC
From the text: as §1

[12] = tested on: Pro. mirabilis T-111; settings: Proteus mirabilis, 37° C.
From the text: as §1

[13] = tested on: Pro. morganii T-216; settings: Morganella morganii, 37° C.
From the text: as §1

[14] = tested on: Ps. aeruginosa S-68; settings: Pseudomonas aeruginosa
From the text: as §1

[15] = tested on: St. aureus FDA209P; settings: Staphylococcus aureus, FDA209P, 20 h, St. aureus FDA209P; 10^6 cells per ml; 37° C., 20 hours; read-out: MIC
From the text: as §1

[16] = tested on: Kl. pneumoniae Y-4*; settings: Klebsiella pneumoniae, 20 h, Kl. pneumoniae Y-4, penicillinase-producing; 10^6 cells per ml; read-out: MIC
From the text: as §1
(§3) * Penicillinase-producing bacteria

[17] = tested on: St. aureus F-137*; settings: Staphylococcus aureus, 20 h, St. aureus F-137, penicillinase-producing; 10^6 cells per ml; read-out: MIC
From the text: as §1, §3

[18] = tested on: E. coli TK-3*; settings: Escherichia coli, 20 h
From the text: as §1, §3

[19] = tested on: Ps. aeruginosa GN3379*; settings: Pseudomonas aeruginosa, Ps. aeruginosa GN3379, penicillinase-producing, 10^6 cells per ml
From the text: as §1, §3

[20] = Ent. cloacae IID977, 10^6 cells per ml, 37° C., 20 hours, read-out: MIC
[21] = Ps. aeruginosa IFO3445, 10^6 cells per ml, 37° C., 20 hours, read-out: MIC
[22] = T216, 10^6 cells per ml, 20 hours, read-out: MIC
[23] = E. coli TK-3, penicillinase-producing, 10^6 cells per ml, read-out: MIC
[24] = 20 h, Pro. vulgaris GN76, cephalospolinase-producing, 10^6 cells per ml, read-out: MIC
[25] = S68, Ps. aeruginosa S-68, 10^6 cells per ml, 37° C., 20 hours, read-out: MIC

Row | Compound | MIC [2] | MIC [4] | MIC [5] | MIC [6, 20] | MIC [7] | MIC [8] | MIC [9] | MIC [10, 21] | MIC [11] | MIC ([12]; T111, 20 h, 10^6 cells per ml) | MIC [13, 22] | MIC ([14]; S68, 20 h) | MIC [15] | MIC [16] | MIC [17] | MIC [18, 23] | MIC ([19]; GN3379, 20 h) | MIC ([1]; 20 h, read-out: MIC) | MIC [3, 24] | MIC [14, 25] | also measured
1 | CN(C)c1ccc(-c2cc(=O)c(C(=O)O)cn2-c2ccc(F)cc2)cc1 | 0.2 µg/mL (≈ 0.568 µM) | 1.56 µg/mL (≈ 4.43 µM) | 0.39 µg/mL (≈ 1.11 µM) | 3.13 µg/mL (≈ 8.88 µM) | 0.39 µg/mL (≈ 1.11 µM) | 0.78 µg/mL (≈ 2.21 µM) | 6.25 µg/mL (≈ 17.7 µM) | 25 µg/mL (≈ 70.9 µM) | 0.39 µg/mL (≈ 1.11 µM) | 6.25 µg/mL (≈ 17.7 µM) | 3.13 µg/mL (≈ 8.88 µM) | 12.5 µg/mL (≈ 35.5 µM) | 0.78 µg/mL (≈ 2.21 µM) | 12.5 µg/mL (≈ 35.5 µM) | 0.78 µg/mL (≈ 2.21 µM) | 3.13 µg/mL (≈ 8.88 µM) | 12.5 µg/mL (≈ 35.5 µM) | – | – | – | MIC ([1]; GN918, 20 h): 12.5 µg/mL (≈ 35.5 µM); MIC ([3]; GN76, 20 h): 1.56 µg/mL (≈ 4.43 µM)
2 | CC(=O)Oc1ccc(-n2cc(C(=O)O)c(=O)cc2-c2ccc(N(C)C)cc2)cc1 | ≤ 0.05 µg/mL | 0.39 µg/mL (≈ 0.994 µM) | 0.2 µg/mL (≈ 0.51 µM) | – | 0.1 µg/mL (≈ 0.255 µM) | 0.2 µg/mL (≈ 0.51 µM) | 1.56 µg/mL (≈ 3.98 µM) | – | ≤ 0.05 µg/mL | 3.13 µg/mL (≈ 7.98 µM) | 0.78 µg/mL (≈ 1.99 µM) | 3.13 µg/mL (≈ 7.98 µM) | 0.1 µg/mL (≈ 0.255 µM) | 3.13 µg/mL (≈ 7.98 µM) | 0.1 µg/mL (≈ 0.255 µM) | 0.39 µg/mL (≈ 0.994 µM) | 3.13 µg/mL (≈ 7.98 µM) | 0.78 µg/mL (≈ 1.99 µM) | 0.39 µg/mL (≈ 0.994 µM) | – | MIC [6]: 1.56 µg/mL (≈ 3.98 µM); MIC ([10]; IFO3445, 20 h): 3.13 µg/mL (≈ 7.98 µM)
3 | Cc1cc(O)ccc1-n1cc(C(=O)O)c(=O)cc1C1CC=CCC1 (stereo not drawn) | 0.1 µg/mL (≈ 0.307 µM) | 0.39 µg/mL (≈ 1.2 µM) | 0.2 µg/mL (≈ 0.615 µM) | 0.78 µg/mL (≈ 2.4 µM) | ≤ 0.05 µg/mL | 0.39 µg/mL (≈ 1.2 µM) | 1.56 µg/mL (≈ 4.79 µM) | 6.25 µg/mL (≈ 19.2 µM) | 0.1 µg/mL (≈ 0.307 µM) | 1.56 µg/mL (≈ 4.79 µM) | – | – | 0.2 µg/mL (≈ 0.615 µM) | 1.56 µg/mL (≈ 4.79 µM) | 0.1 µg/mL (≈ 0.307 µM) | 0.78 µg/mL (≈ 2.4 µM) | – | 0.78 µg/mL (≈ 2.4 µM) | 0.39 µg/mL (≈ 1.2 µM) | 6.25 µg/mL (≈ 19.2 µM) | MIC ([13]; T216, 20 h, 10^6 cells per ml): 1.56 µg/mL (≈ 4.79 µM); MIC ([19]; 20 h, read-out: MIC): 6.25 µg/mL (≈ 19.2 µM)
4 | Cc1cc(O)ccc1-n1cc(C(=O)O)c(=O)cc1CCc1ccccc1 | 0.2 µg/mL (≈ 0.572 µM) | 1.56 µg/mL (≈ 4.46 µM) | 0.39 µg/mL (≈ 1.12 µM) | 6.25 µg/mL (≈ 17.9 µM) | 0.1 µg/mL (≈ 0.286 µM) | 3.13 µg/mL (≈ 8.96 µM) | 12.5 µg/mL (≈ 35.8 µM) | 25 µg/mL (≈ 71.6 µM) | 0.39 µg/mL (≈ 1.12 µM) | 12.5 µg/mL (≈ 35.8 µM) | 3.13 µg/mL (≈ 8.96 µM) | 12.5 µg/mL (≈ 35.8 µM) | 0.78 µg/mL (≈ 2.23 µM) | 12.5 µg/mL (≈ 35.8 µM) | 0.78 µg/mL (≈ 2.23 µM) | 3.13 µg/mL (≈ 8.96 µM) | 12.5 µg/mL (≈ 35.8 µM) | 3.13 µg/mL (≈ 8.96 µM) | – | – | MIC ([3]; GN76, 20 h): 1.56 µg/mL (≈ 4.46 µM)
5 | O=C(O)c1cn(-c2ccc(F)cc2)c(/C=C/c2ccccc2)cc1=O | 0.39 µg/mL (≈ 1.16 µM) | 6.25 µg/mL (≈ 18.6 µM) | 1.56 µg/mL (≈ 4.65 µM) | – | 0.78 µg/mL (≈ 2.33 µM) | 3.13 µg/mL (≈ 9.33 µM) | 12.5 µg/mL (≈ 37.3 µM) | 50 µg/mL (≈ 149 µM) | 1.56 µg/mL (≈ 4.65 µM) | 12.5 µg/mL (≈ 37.3 µM) | – | – | 3.13 µg/mL (≈ 9.33 µM) | 25 µg/mL (≈ 74.6 µM) | 3.13 µg/mL (≈ 9.33 µM) | – | – | 50 µg/mL (≈ 149 µM) | 3.13 µg/mL (≈ 9.33 µM) | 25 µg/mL (≈ 74.6 µM) | MIC [6]: 12.5 µg/mL (≈ 37.3 µM); MIC ([13]; T216, 20 h, 10^6 cells per ml): 12.5 µg/mL (≈ 37.3 µM); MIC [18]: 12.5 µg/mL (≈ 37.3 µM); MIC ([19]; 20 h, read-out: MIC): 25 µg/mL (≈ 74.6 µM)
6 | CN1CCc2cc(-c3cc(=O)c(C(=O)O)cn3-c3ccc(O)cc3)ccc21 | ≤ 0.05 µg/mL | 0.39 µg/mL (≈ 1.08 µM) | 0.39 µg/mL (≈ 1.08 µM) | 0.78 µg/mL (≈ 2.15 µM) | 0.2 µg/mL (≈ 0.552 µM) | 0.2 µg/mL (≈ 0.552 µM) | 1.56 µg/mL (≈ 4.3 µM) | 12.5 µg/mL (≈ 34.5 µM) | ≤ 0.05 µg/mL | – | 0.78 µg/mL (≈ 2.15 µM) | – | 0.2 µg/mL (≈ 0.552 µM) | 1.56 µg/mL (≈ 4.3 µM) | 0.1 µg/mL (≈ 0.276 µM) | 0.39 µg/mL (≈ 1.08 µM) | – | – | 0.39 µg/mL (≈ 1.08 µM) | 6.25 µg/mL (≈ 17.2 µM) | MIC ([1]; GN918, 20 h): 1.56 µg/mL (≈ 4.3 µM); MIC ([12]; T111, 10^6 cells per ml, 20 hours, read-out: MIC): 3.13 µg/mL (≈ 8.64 µM); MIC ([19]; 20 h, read-out: MIC): 6.25 µg/mL (≈ 17.2 µM)
